“And” between values parts separate entries of the source, which are not always exact repeats. Equal values may be shown once.
Legend:
Format in all cases: physicochemical
[1] = BET surface area of danazol dry powders
Procedure: (§1) Two percent (2%) w/v danazol solution in dichloromethane was sprayed at a flow rate of 1 ml/min into 100 ml aqueous solution containing 1% w/v excipient or a excipient mixture at 1:1 w/w ratio, if two surfactants were used, to stabilize the drug particles. The temperatures of both heating jacket and water bath were 80° C. and the pressure drop was 3500-4000 psi. After 25 minutes spray, a suspension with drug to excipient ratio of 0.5 was recovered and the particle size of the danazol particles was measured with Malvern Mastersizer-S. The suspensions were centrifuged (BECKMAN, Model TJ-6, USA) at 3000 rpm for 30 mins. The supernatants were poured out and the precipitates were placed into a vacuum oven and dried at 40° C., and −30 in Hg for 3-4 hrs. The crystallinity of the dry powders was examined by x-ray diffraction (PW1720, PHILIPS). The surface area of the dry powders was measured with a high-speed surface area BET analyzer (NOVA 2000, Quantachrome Instruments, USA).

[2] = Contact angle of water on compressed dry powder tablet; settings: distilled water drop on compressed tablet
Procedure: […] was filled into a 0.7 cm diameter flat faced die and compressed with a Carver Laboratory Press (Model M, Fred S. Carver Inc, WIS, USA) at 1500 kgf into a tablet. A drop of […] distilled water was placed on the surface of the tablet and contact angle was measured from the tangential angle of the water drop with help of a camera (Panasonic WV-1410, Philippines).

[3] = Particle size distribution by static light scattering (Malvern Mastersizer-S) and redispersibility; settings: after centrifugation and vacuum drying
Description: The organic danazol solution was fed by an HPLC pump through a 3 m long 1/16 in. o.d.×0.030 in. i.d. stainless steel coiled tube contained within a 1½″ OD×24″ long plastic water jacket (Alltech). Water was circulated through the jacket with a JULABO MP temperature controller. The organic solution was atomized through an unheated insulated adjustable restrictor (5 mm dia.×136 mm long, ISCO, USA) into hot water. Atomization was achieved by adjusting the nozzle valve manually to maintain a pressure drop to about 3500 psi. The aqueous stabilizing solution was contained in a 250 ml plastic submerged in a temperature-controlled water bath. The nozzle was submerged approximately 10 cm under the surface of the aqueous solution. […] After spraying for a required time to produce the desired drug/excipient ratio, the suspension was recovered and analyzed within 30 mins to determine the particle size by light scattering with a Malvern Mastersizer-S (Malvern Instruments Ltd., U. K.).
Two percent (2%) w/v danazol solution in dichloromethane was sprayed at a flow rate of 1 ml/min into 100 ml aqueous solution containing 1% w/v excipient or a excipient mixture at 1:1 w/w ratio, if two surfactants were used, to stabilize the drug particles. […] The surface area of the dry powders was measured with a high-speed surface area BET analyzer (NOVA 2000, Quantachrome Instruments, USA). […]

[4] = X-ray diffraction of danazol dry powders
Procedure: as §1
X-ray diffraction was used to analyze the crystallinity of the dry powders. […] The a-peak heights of danazol in different excipient systems at 2θ=15° are listed in Table N. The reduction in crystallinity was less than 20% after correction for the presence of 10% w/w excipient. It was assumed that the danazol peak height was linear in concentration for a fixed weight. […]

Surface Area of the dry powder [1]: 0.52 m^2/g
Contact angle of dry powder after centrifugation and drying [2]: 61.5 ° and 61.0 °
D (v, 0.5) redispersed dry powders ([3]; cell marked (30s)): 21.07 (30s) μm
D (v, 0.5) redispersed dry powders w/o ultrasonic ([3]; redispersed in distilled water): 29.63 μm
Peak height of danazol x-ray diffraction at 2θ = 15° [4]: 3182 counts
SMILES: C#C[C@]1(O)CC[C@H]2[C@@H]3CCC4=Cc5oncc5C[C@]4(C)[C@H]3CC[C@@]21C [Bulk danazol, danazol]

From US8551526B2, “Preparation of drug particles using evaporation precipitation into aqueous solutions” (Board of Regents, The University of Texas System, priority 2000, dated 2013)
